Values of other authors in US20030152643A1, “Combination of an alpha-adrenergic antagonist and a nitrogen oxide donor for treating female sexual dysfunctions” (priority 1998, published 2003).

System: erectile dysfunctions
Conditions: administration in men; Zorgniotti and Lizza 1994

## N=C(N)NCCC[C@H](N)C(=O)O [L-arginine]
  effect on erectile dysfunctions in men: favorable effect on erectile dysfunctions in certain cases
